Data set [1] has as its system SW-1710 bladder cancer cell line. Nature of the data set: CellTiter-Glo viability assay, SW-1710. To be noted: Homo sapiens, SW1710, FGFR3 status WT, 72 hours, read-out: Ganetespib IC50. Type of data set: cell-based. The protocol:
(§1) Cellular viability was assessed using the CellTiter-Glo Luminescent Cell Viability Assay (Promega) according to manufacturer protocols. Bladder cancer cell lines were seeded into 96-well plates based on optimal growth rates determined empirically for each line. Twenty-four hours after plating, cells were dosed with graded concentrations of ganetespib for 72 hours. CellTiter-Glo was added (50% v/v) to the cells, and the plates incubated for 10 minutes prior to luminescent detection in a SpectraMax Plus 384 microplate reader (Molecular Devices). Data were normalized to percent of control and IC50 values used to determine the sensitivity of each line. For the comparative analyses with ganetespib and BGJ398, RT112 cells were treated with graded concentrations of each compound for 72 hours and cell viability measured as above. For the evaluation of apoptotic induction, caspase activity was assessed using the Caspase-Glo 3/7 assay (Promega) according to manufacturer protocols. Twenty-four hours after plating, RT112 cells were treated with graded concentrations of ganetespib for 24 hours. Caspase-Glo was added to cells (50% v/v) and the plates incubated for 1 hour prior to luminescent detection.
Background: In ATP-based viability assays light output follows the ATP content of the culture.

The test system of data set [2] is SCaBER bladder cancer cell line. Nature of the data set: CellTiter-Glo viability assay, SCaBER. The class given is cell-based. Particulars: Homo sapiens, FGFR3 status WT, 72 hours, read-out: Ganetespib IC50. The protocol:
as §1

Data set [3] has as its system HT-1376 bladder cancer cell line. Briefly: CellTiter-Glo viability assay, HT-1376. The class given is cell-based. Particulars: Homo sapiens, FGFR3 status WT, 72 hours, read-out: Ganetespib IC50. The procedure:
as §1

The test system of data set [4] is HT-1197 bladder cancer cell line. Nature of the data set: CellTiter-Glo viability assay, HT-1197. Type of data set: cell-based. To be noted: Homo sapiens, HT1197, FGFR3 status WT, 72 hours, read-out: Ganetespib IC50. The protocol: as §1
The test system of data set [5] is SW780 bladder cancer cell line. Nature of the data set: CellTiter-Glo viability assay, SW780. The class given is cell-based. Particulars: Homo sapiens, FGFR3 status FGFR3-BAIAP2L1, 72 hours, read-out: Ganetespib IC50. The procedure: as §1
Data set [6] has as its system MGH-U3 bladder cancer cell line. Nature of the data set: CellTiter-Glo viability assay, MGH-U3. The class given is cell-based. To be noted: FGFR3 status Y375C, 72 hours, read-out: Ganetespib IC50. The procedure:
as §1

Data set [7] has as its system T24 bladder cancer cell line. Briefly: CellTiter-Glo viability assay, T24. The class given is cell-based. Particulars: FGFR3 status WT, 72 hours, read-out: Ganetespib IC50. The protocol:
as §1

For data set [8], the system named is J82 bladder cancer cell line. Briefly: CellTiter-Glo viability assay, J82. Particulars: FGFR3 status K652E, 72 hours, read-out: Ganetespib IC50. Type of data set: cell-based. The procedure: as §1
The subject of data set [9] is RT112 xenografts. Nature of the data set: RT112 xenograft tumor model. The class given is in vivo. To be noted: ganetespib 150 mg/kg i.v. once weekly, 3 weeks. The protocol:
CD-1 nude mice (Charles River Laboratories, Wilmington, Mass.) at 7-12 weeks of age were maintained in a pathogen-free environment and all in vivo procedures were approved by the Synta Pharmaceuticals Corp. Institutional Animal Care and Use Committee. RT112 cells (5×10^6) were subcutaneously implanted into female mice and animals bearing established tumors (˜150 mm^3) were randomized into treatment groups of 8. Mice were i.v. dosed with ganetespib (150 mg/kg) once weekly or p.o. dosed with BGJ398 (10 mg/kg) daily, either alone or in combination, for 3 weeks. Tumor growth inhibition was monitored by tumor volume measurements twice weekly. As a measurement of in vivo efficacy, the % T/C value was determined from the change in average tumor volumes of each treated group relative to the vehicle treated animals. Statistical significance was determined using two-way ANOVA followed by Bonferroni post tests.

In data set [10] the test system is KU-19-19 bladder cancer cell line. Briefly: CellTiter-Glo viability assay, KU-19-19. Particulars: Homo sapiens, FGFR3 status WT, 72 hours, read-out: Ganetespib IC50. Type of data set: cell-based. The procedure:
as §1

In data set [11] the test system is LB831-BLC bladder cancer cell line. Nature of the data set: CellTiter-Glo viability assay, LB831-BLC. Type of data set: cell-based. To be noted: FGFR3 status WT, 72 hours, read-out: Ganetespib IC50. The protocol:
as §1

The subject of data set [12] is SW780 cells. Briefly: LC-MS/MS bioanalysis of ganetespib and glucuronidated metabolites in SW780 cells. Particulars: 1 μM ganetespib, by 24 hours. The class given is in vitro ADME. The protocol: In the first set of experiments, RT112 and SW780 cells were treated with graded concentrations of ganetespib or 17-DMAG (10-1000 nM) for 1 and 24 hours. Cell lysates were prepared for measurement of intracellular concentrations of the respective HSP90 inhibitors. RT112 and SW780 cells were also treated with 1 μM ganetespib for 15 minutes, 1, 4, 8 and 24 hours. At each time point cell lysates were prepared and media was collected for analysis of intracellular and secreted concentrations of ganetespib and its glucuronidated metabolites. Bioanalysis was performed on equal protein concentrations from cell lysates or equal volumes of media. All samples were ultimately extracted by protein precipitation and analyzed by LC-MS/MS using an Agilent 1100 HPLC interfaced to an API 4000 tandem mass spectrometer (Applied Biosystems). A Phenomenex Kinetex 2.6 μm C18 (30×2.1 mm) column was used with a run time of 3.5 min per sample.

For data set [13] the following is noted: weekly dosing regimen; cited from earlier work.
The test system of data set [14] is SW1463 cells. Nature of the data set: Cell viability assay, SW1463 colorectal cancer cells. To be noted: Homo sapiens, read-out: IC50 based on cell viability. The procedure:
24 hours after transfection, […] were seeded in triplicate in 96-well plates one day before treatment. Cells were treated with inhibitors and drugs for 48 hours and subjected to the CellTiterGlo Luminescent Cell Viability assay (Promega, Madison Wis., USA).

Data set [15] relates to BFTC bladder cancer cell line. Nature of the data set: CellTiter-Glo viability assay, BFTC. To be noted: FGFR3 status WT, 72 hours, read-out: Ganetespib IC50. The class given is cell-based. The procedure: as §1
Data set [16] has as its system FGFR3-TAAC3 in RT112 cells. Briefly: Western blotting of FGFR3-TAAC3 and signaling proteins in RT112 cells. The class given is cell-based. To be noted: 200 nM ganetespib. The protocol: Following in vitro assays, tumor cells were disrupted in lysis buffer on ice for 10 minutes. Lysates were clarified by centrifugation and equal amounts of proteins resolved by SDS-PAGE before transfer to nitrocellulose membranes (Bio-Rad). Membranes were blocked with StartingBlock T20 blocking buffer (Thermo Scientific) and immunoblotted with the indicated antibodies. Antibody-antigen complexes were visualized using an Odyssey system (LI-COR).
(In western blotting, separated proteins are transferred to a membrane and probed.)

For data set [17], the system named is RT112 bladder cancer cell line. Nature of the data set: CellTiter-Glo viability assay, RT112. Type of data set: cell-based. Particulars: Homo sapiens. The protocol: as §1
For data set [18], the system named is TCCSUP bladder cancer cell line. Briefly: CellTiter-Glo viability assay, TCCSUP. Particulars: Homo sapiens, TCC-SUP, FGFR3 status WT, 72 hours, read-out: Ganetespib IC50. The class given is cell-based. The protocol: as §1
In data set [19] the test system is 97-7 bladder cancer cell line. Briefly: CellTiter-Glo viability assay, 97-7. The class given is cell-based. Particulars: FGFR3 status S249C, 72 hours, read-out: Ganetespib IC50. The procedure: as §1

Read-outs that look alike come from different tables or passages of the source.

In the case of `CC(C)c1cc(-c2n[nH]c(=O)n2-c2ccc3c(ccn3C)c2)c(O)cc1O` [ganetespib], the IC50 in [1] worked out at 6 nM; in [2], 10 nM; in data set [3], 21 nM; in data set [4], 53 nM; in data set [5], 3450 nM; in [6], 53 nM. Moreover, the IC50 in [7] was 7 nM; in data set [8], 18 nM; in data set [10], 36 nM; in data set [11], 34 nM; in data set [14] it was 100 nM; in [15] it was 17 nM. Moreover, the IC50 in [17] (RT-112, 72-hour combination viability assay, single inhibitor, read-out: approximate IC50 concentrations) is about 9.6 nM; in data set [17] (RT-112, FGFR3 status FGFR3-TACC3, 72 hours, read-out: Ganetespib IC50), 9 nM; in data set [18] it was 142 nM; in data set [19], 38 nM. Moreover, the T/C value in data set [9] is listed as −23%. Also, the intracellular ganetespib concentrations result in data set [12] is “undetectable”. Also, the maximally tolerated dose in data set [13] is 150 mg/kg. The “time to destabilization of the FGFR3-TAAC3 fusion and alterations in downstream signaling” value in data set [16] is at most 4 h.
